In US20260285880A1, “SUBSTITUTED DIHYDROTHIENOPYRIMIDINE COMPOUND, PREPARATION METHOD THEREFOR, AND USE THEREOF” (SHANGHAI YIDI BIOTECHNOLOGY CO., LTD., priority 2023, published 2026):

Legend:
PDE4B2 = PDE4B2 (Homo sapiens, UniProt Q07343); conditions: read-out: PDE4B2 IC50; enzyme assay
Flpin-293-PDE4B2 cells = Flpin-293-PDE4B2 cells (Homo sapiens, UniProt Q07343); test: cell-based; conditions: for inhibition at 0.001 µM: read-out: Cell Inhibition % @1 nM, 1 nM, Flpin-293-PDE4B2 cells; for inhibition at 0.01 µM: read-out: Cell Inhibition % @10 nM, 10 nM, Flpin-293-PDE4B2 cells; for inhibition at 0.1 µM: read-out: Cell Inhibition % @100 nM, 100 nM, Flpin-293-PDE4B2 cells
PDE4D2 = PDE4D2 (Homo sapiens, UniProt Q08499); test: PDE4D2 enzyme experiment (AMP-Glo); conditions: read-out: PDE4D2 IC50 Binding; enzyme assay
Sequence of PDE4D2 (Q08499 303-809 limits assumed): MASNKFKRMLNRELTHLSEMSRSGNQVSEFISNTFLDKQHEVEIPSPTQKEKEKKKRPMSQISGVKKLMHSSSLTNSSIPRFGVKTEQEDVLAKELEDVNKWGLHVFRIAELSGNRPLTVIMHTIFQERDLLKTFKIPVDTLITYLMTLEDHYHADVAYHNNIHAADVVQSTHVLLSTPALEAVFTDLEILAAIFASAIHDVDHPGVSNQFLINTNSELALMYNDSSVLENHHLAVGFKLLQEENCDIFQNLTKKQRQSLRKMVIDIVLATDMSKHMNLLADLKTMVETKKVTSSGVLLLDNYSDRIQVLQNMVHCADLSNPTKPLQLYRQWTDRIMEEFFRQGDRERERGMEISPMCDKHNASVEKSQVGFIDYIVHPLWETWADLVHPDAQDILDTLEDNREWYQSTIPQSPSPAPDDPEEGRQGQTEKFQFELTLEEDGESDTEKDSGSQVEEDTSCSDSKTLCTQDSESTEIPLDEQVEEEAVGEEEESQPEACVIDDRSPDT

Sequence of PDE4B2 (Q07343 1-564 isoform Q07343-2, species assumed): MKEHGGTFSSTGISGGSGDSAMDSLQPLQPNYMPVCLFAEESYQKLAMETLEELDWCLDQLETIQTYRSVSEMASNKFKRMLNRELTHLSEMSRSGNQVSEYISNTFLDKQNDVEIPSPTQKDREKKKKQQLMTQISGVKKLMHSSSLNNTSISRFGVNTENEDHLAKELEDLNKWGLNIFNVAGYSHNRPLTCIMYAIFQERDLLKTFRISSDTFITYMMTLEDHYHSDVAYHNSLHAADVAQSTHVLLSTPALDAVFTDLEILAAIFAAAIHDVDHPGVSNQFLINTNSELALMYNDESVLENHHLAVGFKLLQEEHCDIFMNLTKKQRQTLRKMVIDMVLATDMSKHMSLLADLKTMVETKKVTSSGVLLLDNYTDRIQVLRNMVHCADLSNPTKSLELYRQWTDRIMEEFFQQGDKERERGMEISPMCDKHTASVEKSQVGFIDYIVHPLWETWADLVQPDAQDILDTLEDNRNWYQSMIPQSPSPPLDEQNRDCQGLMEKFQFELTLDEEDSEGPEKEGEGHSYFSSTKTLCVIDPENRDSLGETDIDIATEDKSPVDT
Sequence of Flpin-293-PDE4B2 cells (Q07343 1-564 isoform Q07343-2): as the sequence (Q07343 1-564 isoform Q07343-2, species assumed) above

Structure (SMILES)	IC50 (PDE4B2) [nM]	inhibition at 0.001 µM (Flpin-293-PDE4B2 cells) [%]	inhibition at 0.01 µM (Flpin-293-PDE4B2 cells) [%]	inhibition at 0.1 µM (Flpin-293-PDE4B2 cells) [%]	IC50 (PDE4D2) [nM]
[O-][S+]1CCc2nc(N3CCc4cc(N5CC[C@@H](O)C5)ccc4C3)nc(NC3(CO)CCC3)c21 (stereo partly shown) [Compound 130]	0.297	11.8	57.9	100	0.59
C[C@@H]1c2ccc(Br)cc2CCN1c1nc2c(c(NC3(CO)CCC3)n1)[S+]([O-])CC2 (stereo partly shown) [Compound 124]	0.98	8.7	42.6	97.3	2.92
CO[C@@H]1CCN(c2ccc3c(c2)CCN(c2nc4c(c(NC5(CO)CCC5)n2)[S+]([O-])CC4)C3)C1 (stereo partly shown) [Compound 152]	0.426	16.1	66	99.2	0.748
N#CC1CCN(c2ccc3c(c2)CCN(c2nc4c(c(NC5(CO)CCC5)n2)[S+]([O-])CC4)C3)C1 (stereo not shown) [Compound 159]	0.224	16.8	73.4	99.6	0.389
CN1CC(Nc2nc(N3CCc4cc(Cl)ccc4C3)nc3c2[S+]([O-])CC3)CCC1=O (stereo not shown) [Compound 136]	0.0407	48.1	98.3	101	0.0825
[O-][S+]1CCc2nc(N3CCc4cc(N5CCC(F)C5)ccc4C3)nc(NC3(CO)CCC3)c21 (stereo not shown) [Compound 149]	0.43	5.99	38.3	96	1.08
C[C@H]1CCCN1c1ccc2c(c1)CCN(c1nc3c(c(NC4(CO)CCC4)n1)[S+]([O-])CC3)C2 (stereo partly shown) [Compound 134]	0.098	19.2	86.8	101	0.24
CN1C[C@@H]2CCN(c3ccc4c(c3)CCN(c3nc5c(c(NC6(CO)CCC6)n3)[S+]([O-])CC5)C4)[C@@H]2C1 (stereo partly shown) [Compound 162]	0.589	10.7	52.8	93.8	0.584
[O-][S+]1CCc2nc(N3CCc4cc(N5CC6COCC6C5)ccc4C3)nc(NC3(CO)CCC3)c21 (stereo not shown) [Compound 154]	0.138	26.5	91	99.7	0.279
O=S1(=O)C[C@H]2C[C@@H]1CN2c1ccc2c(c1)CCN(c1nc3c(c(NC4(CO)CCC4)n1)[S+]([O-])CC3)C2 (stereo partly shown) [Compound 163]	0.17	11.9	56.7	96.7	0.3
[O-][S+]1CCc2nc(N3CCc4cc(N5CC6CC6C5)ccc4C3)nc(NC3(CO)CCC3)c21 (stereo not shown) [Compound 145]	0.245	4.25	36	95.9	0.985
[O-][S+]1CCc2nc(N3CCc4cc(N5CC[C@@H](F)C5)ccc4C3)nc(NC3(CO)CCC3)c21 (stereo partly shown) [Compound 150]	0.418	11.8	49.6	97.5	0.694
[O-][S+]1CCc2nc(N3CCc4cc(N5CCC6(COC6)C5)ccc4C3)nc(NC3(CO)CCC3)c21 (stereo not shown) [Compound 165]	0.351	10.3	76.8	99.9	0.398
CN(C)C1CCN(c2ccc3c(c2)CCN(c2nc4c(c(NC5(CO)CCC5)n2)[S+]([O-])CC4)C3)C1 (stereo not shown) [Compound 148]	0.7	3.99	37.3	92.1	1.1
[O-][S+]1CCc2nc(N3CC[C@@H]4c5ccc(Cl)nc5OC[C@H]4C3)nc(NC3(CO)CCC3)c21 (stereo partly shown) [Compound 119]	1.37	14	55.1	96	2.79

Results, then the molecule that gave them:

IC50 (PDE4B2) [nM]	inhibition at 0.001 µM (Flpin-293-PDE4B2 cells) [%]	inhibition at 0.01 µM (Flpin-293-PDE4B2 cells) [%]	inhibition at 0.1 µM (Flpin-293-PDE4B2 cells) [%]	IC50 (PDE4D2) [nM]	Structure (SMILES)
0.386	8.43	65.7	99.5	0.391	CC(C)(O)[C@@H]1CCN(c2ccc3c(c2)CCN(c2nc4c(c(NC5(CO)CCC5)n2)[S+]([O-])CC4)C3)C1 (stereo partly shown) [Compound 173]
0.508	7.25	53.3	98.6	0.502	[O-][S+]1CCc2nc(N3CCc4cc(N5CC6CC5C6)ccc4C3)nc(NC3(CO)CCC3)c21 (stereo not shown) [Compound 177]
0.14	15.4	60.3	99.2	0.45	[O-][S+]1CCc2nc(N3CCc4cc(N5CCCC5)ccc4C3)nc(Nc3cnn(C4COC4)c3)c21 (stereo not shown) [Compound 192]
0.108	6.54	46.9	98.6	0.561	Cn1cc(Nc2nc(N3CCc4cc(N5CCCC5)ccc4C3)nc3c2[S+]([O-])CC3)cn1 (stereo not shown) [Compound 168]
0.333	4.28	33.6	92.9	1.08	[O-][S+]1CCc2nc(N3CCc4cc(N5CCCC5)ccc4C3)nc(Nc3cn[nH]c3)c21 (stereo not shown) [Compound 194]
0.227	11.7	50.4	98.2	0.75	COc1nn(C)cc1Nc1nc(N2CCc3cc(N4CCCC4)ccc3[C@@H]2C)nc2c1[S+]([O-])CC2 (stereo partly shown) [Compound 216]
0.387	8.72	39.6	96.6	0.73	[O-][S+]1CCc2nc(N3CCc4cc(N5CCCC5)ccc4C3)nc(N3CCC[C@H]3CO)c21 (stereo partly shown) [Compound 188]
0.168	3.93	47.1	96.7	0.572	Cn1cc(CNc2nc(N3CCc4cc(N5CCCC5)ccc4C3)nc3c2[S+]([O-])CC3)cn1 (stereo not shown) [Compound 190]
0.0646	24.7	93.2	101	0.155	[O-][S+]1CCc2nc(N3CCc4cc(N5CCCC5)ccc4C3)nc(NC3(CO)CC3)c21 (stereo not shown) [Compound 186]
0.417	4.88	38.2	96	1.27	COc1nn(C)cc1Nc1nc(N2CCc3cc(N4CCCC4)ccc3C2)nc2c1[S+]([O-])CC2 (stereo not shown) [Compound 193]
0.457	9.23	61.6	98.2	0.453	[O-][S+]1CCc2nc(N3CCc4cc(N5CCC6(CC5)COC6)ccc4C3)nc(NC3(CO)CCC3)c21 (stereo not shown) [Compound 166]
0.0693	23.7	89.5	100	0.244	COC(=O)N1CC[C@H](Nc2nc(N3CCc4cc(N5CCCC5)ccc4C3)nc3c2[S+]([O-])CC3)C1 (stereo partly shown) [Compound 196]
0.608	18.1	67.4	97.7	1.79	[O-][S+]1CCc2nc(N3CCc4cc(N5CCCC5)ccc4C3)nc(NCCO)c21 (stereo not shown) [Compound 198]
0.607	6.1	51.5	97.8	0.716	C[C@H]1CCN1c1ccc2c(c1)CCN(c1nc3c(c(NC4(CO)CCC4)n1)[S+]([O-])CC3)C2 (stereo partly shown) [Compound 176]
